What was measured:
Format in all cases: in vivo, human
[1] = tested on: subjects with mild-to-moderate Alzheimer's disease; assay: Clinical study, ADCS-ADL
Protocol: (§1) A double-blind study of 3 doses of the Test Composition or placebo in subjects with mild-to-moderate Alzheimer's disease, with or without receiving a concomitant AChEI for 24 weeks (168 days) after a 7 day placebo run-in period.
(§2) Total number of subjects in the safety population was 409 subjects that were dosed once-daily with a dosing-capsule for a period of 168 days. The subjects dosed, and the particular dosing, included: 104 subjects dosed with Placebo capsule; and 305 subjects dosed with Test Compound (104 subjects with 0.3 mg capsules; 101 subjects with 1 mg capsules; and 100 subjects with 2 mg capsules).
(§3) The population included generally healthy male or female subjects, aged 50 to ≦85 years, with mild-to-moderate Alzheimer's disease, consistent with criteria defined by a Work Group of the National Institute of Neurological and Communicative Disorders and Stroke—Alzheimer's Disease and Related Disorders Association, of mild to moderate severity, with a Mini-Mental State Examination score (MMSE) 14 and ≦24, and a Clinical Dementia Rating Scale Sum of the Boxes (CDR-SB) score of 2. […] Subjects were required to be either receiving a stable dose of an AChEI (donepezil or rivastigmine) for at least 3 months before screening or not presently being treated with an AChEI or mementine for at least 30 days.
(§4) Subjects with mild to moderate Alzheimer's disease receiving stable treatment with an AChEI (donepezil or rivastigmine: ‘add-on’ subjects) or not receiving an AChEI (de novo subjects′) received 0.3, 1, or 2 mg doses of Test Composition or placebo for up to 24 weeks (168 days) of double-blind treatment, after a 7-day single-blind, placebo run-in period to assess study drug compliance. A follow-up telephone contact was conducted approximately 15 days after the last dose of study drug for questions regarding safety.
Alzheimer's Disease Cooperative Study Group-Activities of Daily Living Scale (ADCS-ADL, or sometimes referred to as ADCS-ADL-23):
The ADCS-ADL-23 test employed herein is based on the procedure developed by Galasko D, Bennett D, Sano M, et al., Alz Dis Assoc Disord (1997) 11(2): S33-S39.
The ADCS-ADL test assesses the actual performance of specific actions and behaviors by a patient as observed by a caregiver/informant.

[2] = tested on: subjects with mild-to-moderate Alzheimer's disease; assay: Clinical study, ADAS-Cog-13
Protocol: as §1, §2, §3, §4
Cognitive Part of the Alzheimer's Disease Assessment Scale (ADAS-Cog-13)
The ADAS-Cog-13 is identical to the ADAS-Cog-11 assessment group (see above), with the addition of test items: Delayed Word Recall, and Digit (Number) Cancellation.
The ADAS-cog-13 total score ranges from 0 to 85 (higher scores indicate more severe impairment). A decrease from baseline indicates improvement.

[3] = tested on: subjects with mild-to-moderate Alzheimer's disease; assay: Clinical study, Clinical Dementia Rating-Sum of Boxes (CDR-SB)
Protocol: as §1, §2, §3, §4
Clinical Dementia Rating-Sum of Boxes CDR-SB
The CDR-SB test employed herein is based on the procedure developed by Hughs C D, Berg L, Danziger W L, Coben L A, and Martin R L. “A new clinical scale for the staging of dementia”; Br J Psychiatry. 1982; 140:566-572, and provides an assessment of six (6) dimensions: Memory, Orientation, Judgment and Problem Solving, Community Affairs, Home and Hobbies, and Personal Care.
Each of the six CDR dimensions are scored separately with well-defined anchors from 0 to 3.0 (no impairment to severe illness). The total sum of boxes ranges from 0 to 18. Higher totals indicate more severe impairment. A decrease from baseline indicates improvement.

[4] = Add-On patients (stable donepezil or rivastigmine), 0.3 mg daily dose, Week 4
[5] = Add-On patients (stable donepezil or rivastigmine), 0.3 mg daily dose, Week 12
[6] = Add-On patients (stable donepezil or rivastigmine), 0.3 mg daily dose, Week 18
[7] = Add-On patients (stable donepezil or rivastigmine), 0.3 mg daily dose, Week 23
[8] = Add-On patients (stable donepezil or rivastigmine), 1 mg daily dose, Week 4
[9] = Add-On patients (stable donepezil or rivastigmine), 1 mg daily dose, Week 12
[10] = Add-On patients (stable donepezil or rivastigmine), 1 mg daily dose, Week 18
[11] = Add-On patients (stable donepezil or rivastigmine), 1 mg daily dose, Week 23
[12] = Add-On patients (stable donepezil or rivastigmine), 2 mg daily dose, Week 4
[13] = Add-On patients (stable donepezil or rivastigmine), 2 mg daily dose, Week 12
[14] = Add-On patients (stable donepezil or rivastigmine), 2 mg daily dose, Week 18
[15] = Add-On patients (stable donepezil or rivastigmine), 2 mg daily dose, Week 23
[16] = de novo patients, 0.3 mg daily dose, Week 4
[17] = de novo patients, 0.3 mg daily dose, Week 12
[18] = de novo patients, 0.3 mg daily dose, Week 18
[19] = de novo patients, 0.3 mg daily dose, Week 23
[20] = de novo patients, 1 mg daily dose, Week 4
[21] = de novo patients, 1 mg daily dose, Week 12
[22] = de novo patients, 1 mg daily dose, Week 18
[23] = de novo patients, 1 mg daily dose, Week 23
[24] = de novo patients, 2 mg daily dose, Week 4
[25] = de novo patients, 2 mg daily dose, Week 12
[26] = de novo patients, 2 mg daily dose, Week 18
[27] = de novo patients, 2 mg daily dose, Week 23

## Cl.O.O=C(N[C@H]1CN2CCC1CC2)c1cc2cccc(Cl)c2s1 [Test Compound, (R)-7-chloro-N-(quinuclidin-3-yl)benzo[b]thiophene-2-carboxamide, hydrochloride, monohydrate]
[1]; 0.3 mg daily dose, Week 4
  ADCS-ADL (Baseline was assigned the value of zero @ Week 0): 0.07926
[1]; 0.3 mg daily dose, Week 12
  ADCS-ADL (Baseline was assigned the value of zero @ Week 0): −0.5757
[1]; 0.3 mg daily dose, Week 18
  ADCS-ADL (Baseline was assigned the value of zero @ Week 0): −0.6255
[1]; 0.3 mg daily dose, Week 23
  ADCS-ADL (Baseline was assigned the value of zero @ Week 0): −1.8992
[1]; 1 mg daily dose, Week 4
  ADCS-ADL (Baseline was assigned the value of zero @ Week 0): 0.509
[1]; 1 mg daily dose, Week 12
  ADCS-ADL (Baseline was assigned the value of zero @ Week 0): 0.9138
[1]; 1 mg daily dose, Week 18
  ADCS-ADL (Baseline was assigned the value of zero @ Week 0): 0.8306
[1]; 1 mg daily dose, Week 23
  ADCS-ADL (Baseline was assigned the value of zero @ Week 0): −0.3467
[1]; 2 mg daily dose, Week 4
  ADCS-ADL (Baseline was assigned the value of zero @ Week 0): 0.908
[1]; 2 mg daily dose, Week 12
  ADCS-ADL (Baseline was assigned the value of zero @ Week 0): 0.8426
[1]; 2 mg daily dose, Week 18
  ADCS-ADL (Baseline was assigned the value of zero @ Week 0): 0.8097
[1]; 2 mg daily dose, Week 23
  ADCS-ADL (Baseline was assigned the value of zero @ Week 0): 0.3166
[1]; 2 mg dose versus Placebo
  ADCS-ADL Effect Size: 0.20
[2]; 0.3 mg daily dose, Week 4
  ADAS-Cog-13 (Baseline was assigned the value of zero @ Week 0): −0.615
[2]; 0.3 mg daily dose, Week 12
  ADAS-Cog-13 (Baseline was assigned the value of zero @ Week 0): −0.5876
[2]; 0.3 mg daily dose, Week 18
  ADAS-Cog-13 (Baseline was assigned the value of zero @ Week 0): −0.3132
[2]; 0.3 mg daily dose, Week 23
  ADAS-Cog-13 (Baseline was assigned the value of zero @ Week 0): 0.0915
[2]; 1 mg daily dose, Week 4
  ADAS-Cog-13 (Baseline was assigned the value of zero @ Week 0): −0.8012
[2]; 1 mg daily dose, Week 12
  ADAS-Cog-13 (Baseline was assigned the value of zero @ Week 0): −1.2029
[2]; 1 mg daily dose, Week 18
  ADAS-Cog-13 (Baseline was assigned the value of zero @ Week 0): −0.3222
[2]; 1 mg daily dose, Week 23
  ADAS-Cog-13 (Baseline was assigned the value of zero @ Week 0): −0.0565
[2]; 2 mg daily dose, Week 4
  ADAS-Cog-13 (Baseline was assigned the value of zero @ Week 0): −0.0185
[2]; 2 mg daily dose, Week 12
  ADAS-Cog-13 (Baseline was assigned the value of zero @ Week 0): −1.4328
[2]; 2 mg daily dose, Week 18
  ADAS-Cog-13 (Baseline was assigned the value of zero @ Week 0): −1.6593
[2]; 2 mg daily dose, Week 23
  ADAS-Cog-13 (Baseline was assigned the value of zero @ Week 0): −1.6899
[2]; 2 mg dose versus Placebo
  ADAS-Cog 13 Effect Size: 0.39
[2]; [4]
  ADAS-Cog-13 (Baseline was assigned the value of zero @ Week 0): −0.9985
[2]; [5]
  ADAS-Cog-13 (Baseline was assigned the value of zero @ Week 0): −0.2474
[2]; [6]
  ADAS-Cog-13 (Baseline was assigned the value of zero @ Week 0): −0.4557
[2]; [7]
  ADAS-Cog-13 (Baseline was assigned the value of zero @ Week 0): 0.2752
[2]; [8]
  ADAS-Cog-13 (Baseline was assigned the value of zero @ Week 0): −1.0728
[2]; [9]
  ADAS-Cog-13 (Baseline was assigned the value of zero @ Week 0): −0.0705
[2]; [10]
  ADAS-Cog-13 (Baseline was assigned the value of zero @ Week 0): 0.6239
[2]; [11]
  ADAS-Cog-13 (Baseline was assigned the value of zero @ Week 0): 1.4205
[2]; [12]
  ADAS-Cog-13 (Baseline was assigned the value of zero @ Week 0): −0.455
[2]; [13]
  ADAS-Cog-13 (Baseline was assigned the value of zero @ Week 0): −0.9708
[2]; [14]
  ADAS-Cog-13 (Baseline was assigned the value of zero @ Week 0): −1.8659
[2]; [15]
  ADAS-Cog-13 (Baseline was assigned the value of zero @ Week 0): −1.1679
[2]; [16]
  ADAS-Cog-13 (Baseline was assigned the value of zero @ Week 0): −0.545
[2]; [17]
  ADAS-Cog-13 (Baseline was assigned the value of zero @ Week 0): −1.0759
[2]; [18]
  ADAS-Cog-13 (Baseline was assigned the value of zero @ Week 0): −0.4416
[2]; [19]
  ADAS-Cog-13 (Baseline was assigned the value of zero @ Week 0): −0.3226
[2]; [20]
  ADAS-Cog-13 (Baseline was assigned the value of zero @ Week 0): −0.5942
[2]; [21]
  ADAS-Cog-13 (Baseline was assigned the value of zero @ Week 0): −2.311
[2]; [22]
  ADAS-Cog-13 (Baseline was assigned the value of zero @ Week 0): −1.2239
[2]; [23]
  ADAS-Cog-13 (Baseline was assigned the value of zero @ Week 0): −1.4169
[2]; [24]
  ADAS-Cog-13 (Baseline was assigned the value of zero @ Week 0): 0.3542
[2]; [25]
  ADAS-Cog-13 (Baseline was assigned the value of zero @ Week 0): −1.9196
[2]; [26]
  ADAS-Cog-13 (Baseline was assigned the value of zero @ Week 0): −1.5539
[2]; [27]
  ADAS-Cog-13 (Baseline was assigned the value of zero @ Week 0): −2.2283
[3]; 0.3 mg daily dose, Week 4
  CDR-SB (Baseline was assigned the value of zero @ Week 0): 0.0026
[3]; 0.3 mg daily dose, Week 12
  CDR-SB (Baseline was assigned the value of zero @ Week 0): 0.0542
[3]; 0.3 mg daily dose, Week 18
  CDR-SB (Baseline was assigned the value of zero @ Week 0): 0.2325
[3]; 0.3 mg daily dose, Week 23
  CDR-SB (Baseline was assigned the value of zero @ Week 0): 0.4427
[3]; 1 mg daily dose, Week 4
  CDR-SB (Baseline was assigned the value of zero @ Week 0): −0.2365
[3]; 1 mg daily dose, Week 12
  CDR-SB (Baseline was assigned the value of zero @ Week 0): −0.0811
[3]; 1 mg daily dose, Week 18
  CDR-SB (Baseline was assigned the value of zero @ Week 0): −0.0424
[3]; 1 mg daily dose, Week 23
  CDR-SB (Baseline was assigned the value of zero @ Week 0): 0.1214
[3]; 2 mg daily dose, Week 4
  CDR-SB (Baseline was assigned the value of zero @ Week 0): −0.1361
[3]; 2 mg daily dose, Week 12
  CDR-SB (Baseline was assigned the value of zero @ Week 0): −0.1352
[3]; 2 mg daily dose, Week 18
  CDR-SB (Baseline was assigned the value of zero @ Week 0): −0.1368
[3]; 2 mg daily dose, Week 23
  CDR-SB (Baseline was assigned the value of zero @ Week 0): −0.088
[3]; 2 mg dose versus Placebo
  CDR-SB Effect Size: 0.31
[3]; [4]
  CDR-SB (Baseline was assigned the value of zero @ Week 0): −0.2148
[3]; [5]
  CDR-SB (Baseline was assigned the value of zero @ Week 0): −0.1333
[3]; [6]
  CDR-SB (Baseline was assigned the value of zero @ Week 0): 0.0576
[3]; [7]
  CDR-SB (Baseline was assigned the value of zero @ Week 0): 0.4174
[3]; [8]
  CDR-SB (Baseline was assigned the value of zero @ Week 0): −0.2473
[3]; [9]
  CDR-SB (Baseline was assigned the value of zero @ Week 0): 0.1511
[3]; [10]
  CDR-SB (Baseline was assigned the value of zero @ Week 0): 0.2268
[3]; [11]
  CDR-SB (Baseline was assigned the value of zero @ Week 0): 0.476
[3]; [12]
  CDR-SB (Baseline was assigned the value of zero @ Week 0): −0.236
[3]; [13]
  CDR-SB (Baseline was assigned the value of zero @ Week 0): −0.2247
[3]; [14]
  CDR-SB (Baseline was assigned the value of zero @ Week 0): −0.1084
[3]; [15]
  CDR-SB (Baseline was assigned the value of zero @ Week 0): −0.1633
[3]; [16]
  CDR-SB (Baseline was assigned the value of zero @ Week 0): 0.0816
[3]; [17]
  CDR-SB (Baseline was assigned the value of zero @ Week 0): 0.1082
[3]; [18]
  CDR-SB (Baseline was assigned the value of zero @ Week 0): 0.27
[3]; [19]
  CDR-SB (Baseline was assigned the value of zero @ Week 0): 0.3392
[3]; [20]
  CDR-SB (Baseline was assigned the value of zero @ Week 0): −0.3161
[3]; [21]
  CDR-SB (Baseline was assigned the value of zero @ Week 0): −0.3858
[3]; [22]
  CDR-SB (Baseline was assigned the value of zero @ Week 0): −0.3763
[3]; [23]
  CDR-SB (Baseline was assigned the value of zero @ Week 0): −0.288
[3]; [24]
  CDR-SB (Baseline was assigned the value of zero @ Week 0): −0.133
[3]; [25]
  CDR-SB (Baseline was assigned the value of zero @ Week 0): −0.1475
[3]; [26]
  CDR-SB (Baseline was assigned the value of zero @ Week 0): −0.2625
[3]; [27]
  CDR-SB (Baseline was assigned the value of zero @ Week 0): −0.1239
